Measurements published in US20100119483A1, “PEPTIDE VIRAL ENTRY INHIBITORS” (Schering Corporation, priority 2004, published 2010).
Ends that are not written are not given here.

Tests used:
HCV pseudoparticles = experiment: HCV pseudoparticle (HCVpp) entry assay in Huh7 hepatoma cells, luciferase readout; assay type: cell-based, hepatitis C virus; conditions: peptide library screen, first screened at 100 ug/ml; cell entry inhibition vs uninhibited control
Procedure, shortened: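 Huh7 cells were pre-treated with peptide for 1 h at 37 °C before exposure to HCV E1/E2-pseudotyped HIV luciferase particles made in 293T cells, followed by 72 h culture and luciferase readout. Peptides were tested at 10 points, 3-fold, from 100 ug/ml; particles lacking envelope served as non-specific entry control.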

[1] = system: amphotropic murine leukemia virus; experiment: AMLV pseudotyped virus entry counter-screen, same infection protocol; assay type: cell-based; conditions: peptide library screen; cell entry inhibition vs uninhibited control
Description: Infection of hepatoma cell lines with HCV pseudotype particles and screen for inhibitory peptides. The hepatoma cells, Huh7, was seeded at 8000 cells in 90 ul medium in 96-well plate. In the case of the inhibitor screen, the inhibitor was incubated with cells for one hour at 37° C. and then 50 ul viral supernatant was added to the cells 24 hours after seeding. The viral stock was pre-tittered and diluted to yield approximately 10,000 to 20,000 RLU. The cells were incubated at 37° C. with 5% CO2 for additional 72 hours and were harvested for luciferase assay. Peptide stocks were prepared in 100% DMSO at 10 mg/ml and were first screened at 100 ug/ml and then a dose responsive curve was generated with 10 points 3-fold titration starting from 100 ug/ml.
The specificity of the peptides were counter-screened with AMLV and HIV pseudotyped viruses using the same infection protocol.

Substance | HCVpp % inh (HCV pseudoparticles) [%] | AMLVpp % inh [1] [%]
V-H-K-F-N-S-S-G-C-P-E-R-M-A-S-C [SEQ ID NO: 39] | −11 | −15
Y-V-G-D-L-C-G-S-V-F-L-V-A-Q-L-F [SEQ ID NO: 15] | 16 | −31
T-T-T-I-R-R-H-V-D-L-L-V-G-A-A-A [SEQ ID NO: 12] | 31 | −5
L-P-C-S-F-T-T-L-P-A-L-S-T-G-L-I (LPCSFTTLPALSTGLI; HCV peptide) [SEQ ID NO: 72] | −2 | 20
R-I-P-Q-A-V-V-D-M-V-A-G-A-H-W-G [SEQ ID NO: 24] | 25 | −2
V-D-G-G-T-Y-V-T-G-G-T-M-A-K-N-T [SEQ ID NO: 30] | 2 | −9
E-Y-V-L-L-L-F-L-L-L-A-D-A-R-V-C [SEQ ID NO: 78] | 38 | 34
A-R-N-A-S-V-P-T-T-T-I-R-R-H-V-D [SEQ ID NO: 11] | −26 | 24
V-V-V-G-T-T-D-R-F-G-V-P-T-Y-S-W [SEQ ID NO: 49] | 37 | −22
I-T-Y-N-E-S-H-S-S-D-Q-R-P-Y-C-W [SEQ ID NO: 43] | −13 | 17
T-G-G-T-N-A-K-N-T-L-G-I-T-S-L-F [SEQ ID NO: 31] | 41 | −2
V-Y-E-A-A-D-M-I-M-H-T-P-G-C-V-P [SEQ ID NO: 6] | −13 | 10
L-F-S-P-G-S-S-Q-K-I-Q-L-V-N-T-N [SEQ ID NO: 33] | 61 | −49
Y-C-F-T-P-S-P-V-V-V-G-T-T-D-R-F (YCFTPSPVVVGTTDRF; not fully specified (C-terminus); printed as Y-C-F-T-P-S-P-V-V-V-G-T-T-D-R-F) [SEQ ID NO: 48] | 6 | 21
